Molecular target: T1, human Nav1.8 channels (Homo sapiens, UniProt Q9Y5Y9)
T1 construct: expressed in transfected cells
Test: Nav1.8 Qube automated patch-clamp assay
Type: cell-based
Conditions: human Nav1.8 stably expressed in HEK 293 cells; whole-cell voltage clamp, room temperature; resting or inactivated state not specified; read-out: IC50 values (nM) for Examples in the Nav1.8 Qube Assay
How it was run: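 Whole-cell patch clamp at room temperature on HEK293 cells stably expressing human Nav1.8. A 1 Hz train of ten 20 ms pulses to 10 mV from −90 mV holding, with −67 mV repolarization, was applied; first- and tenth-pulse peak currents gave resting and inactivated-state IC50s by Hill fitting.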

T1 sequence (Q9Y5Y9 whole entry): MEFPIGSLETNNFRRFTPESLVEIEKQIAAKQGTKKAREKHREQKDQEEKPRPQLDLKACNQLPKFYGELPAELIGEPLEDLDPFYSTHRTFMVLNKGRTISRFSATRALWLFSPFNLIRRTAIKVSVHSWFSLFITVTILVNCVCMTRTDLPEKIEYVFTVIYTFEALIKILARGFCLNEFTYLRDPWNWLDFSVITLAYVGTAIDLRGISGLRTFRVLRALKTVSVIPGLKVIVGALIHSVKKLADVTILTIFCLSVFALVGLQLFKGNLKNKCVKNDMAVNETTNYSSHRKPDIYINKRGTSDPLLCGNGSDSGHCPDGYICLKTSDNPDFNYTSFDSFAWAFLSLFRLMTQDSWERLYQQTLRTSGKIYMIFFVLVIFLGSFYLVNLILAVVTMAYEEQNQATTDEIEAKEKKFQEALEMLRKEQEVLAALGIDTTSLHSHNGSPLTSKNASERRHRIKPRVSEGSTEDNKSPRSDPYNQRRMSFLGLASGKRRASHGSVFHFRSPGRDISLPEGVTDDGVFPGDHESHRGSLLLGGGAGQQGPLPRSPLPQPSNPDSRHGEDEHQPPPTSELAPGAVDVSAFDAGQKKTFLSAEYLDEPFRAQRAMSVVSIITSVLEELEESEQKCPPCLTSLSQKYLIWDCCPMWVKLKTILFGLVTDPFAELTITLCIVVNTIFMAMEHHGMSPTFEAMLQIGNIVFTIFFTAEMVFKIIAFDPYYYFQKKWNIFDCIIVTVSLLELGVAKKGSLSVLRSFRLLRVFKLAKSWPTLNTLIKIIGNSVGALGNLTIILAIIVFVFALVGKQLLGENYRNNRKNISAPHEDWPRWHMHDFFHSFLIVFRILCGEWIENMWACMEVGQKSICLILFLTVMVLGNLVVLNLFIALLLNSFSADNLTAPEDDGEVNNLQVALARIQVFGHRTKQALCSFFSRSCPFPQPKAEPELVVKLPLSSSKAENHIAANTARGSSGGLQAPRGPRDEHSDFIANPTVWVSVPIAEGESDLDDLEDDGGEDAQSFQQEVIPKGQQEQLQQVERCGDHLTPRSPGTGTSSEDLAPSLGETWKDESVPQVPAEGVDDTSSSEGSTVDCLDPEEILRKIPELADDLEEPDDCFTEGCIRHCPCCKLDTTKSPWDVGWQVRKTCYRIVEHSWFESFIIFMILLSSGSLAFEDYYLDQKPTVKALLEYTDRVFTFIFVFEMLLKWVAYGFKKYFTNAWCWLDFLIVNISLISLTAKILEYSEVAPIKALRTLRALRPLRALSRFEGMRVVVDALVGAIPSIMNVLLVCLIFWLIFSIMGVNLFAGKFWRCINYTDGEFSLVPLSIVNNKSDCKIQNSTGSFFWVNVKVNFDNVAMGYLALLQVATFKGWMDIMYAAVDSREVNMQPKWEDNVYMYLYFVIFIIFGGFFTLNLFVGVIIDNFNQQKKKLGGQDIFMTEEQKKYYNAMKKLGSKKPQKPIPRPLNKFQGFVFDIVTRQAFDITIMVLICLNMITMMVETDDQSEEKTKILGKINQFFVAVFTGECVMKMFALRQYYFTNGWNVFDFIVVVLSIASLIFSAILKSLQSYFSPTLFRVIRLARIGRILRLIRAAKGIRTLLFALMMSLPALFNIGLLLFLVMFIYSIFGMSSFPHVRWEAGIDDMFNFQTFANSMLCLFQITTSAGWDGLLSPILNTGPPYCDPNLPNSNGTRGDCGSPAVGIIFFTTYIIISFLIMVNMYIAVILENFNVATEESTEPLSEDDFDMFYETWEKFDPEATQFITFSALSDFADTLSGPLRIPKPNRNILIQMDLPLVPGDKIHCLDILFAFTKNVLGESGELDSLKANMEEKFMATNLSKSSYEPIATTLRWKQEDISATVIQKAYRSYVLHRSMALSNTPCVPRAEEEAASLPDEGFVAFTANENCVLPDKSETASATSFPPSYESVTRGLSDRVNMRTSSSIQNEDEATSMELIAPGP

SMILES	IC50 [nM]
CCS(=O)(=O)c1cc(NC(=O)c2cc(C(F)(F)F)cnc2N2CCCCCC2)ccn1 [Example 198, 2-(azepan-1-yl)-N-(2-ethylsulfonyl-4-pyridyl)-5-(trifluoro-methyl)pyridine-3-carboxamide]	425
O=C(Nc1ccc2ncc(Br)n2c1)c1cc(C(F)(F)F)cnc1N1CCCCCC1 [Example 199, 2-(azepan-1-yl)-N-(3-bromoimidazo[1,2-a]pyridin-6-yl)-5-(trifluoromethyl)-pyridine-3-carboxamide]	5070
O=C(Nc1cncc(C(F)(F)F)c1)c1cc(C(F)(F)F)cnc1N1CCCCCC1 [Example 200, 2-(azepan-1-yl)-5-(trifluoromethyl)-N-[5-(trifluoromethyl)-3-pyridyl]pyridine-3-carboxamide]	9670
NS(=O)(=O)c1cc(NC(=O)c2cc(N3CCCCC3)cnc2N2CCC(F)(F)CC2)ccn1 [Example 206, 2-(4,4-difluoropiperidin-1-yl)-5-(piperidin-1-yl)-N-(2-sulfamoylpyridin-4-yl)nicotinamide]	363
NS(=O)(=O)c1cc(NC(=O)c2cc(-n3cccn3)cnc2N2CCC(F)(F)CC2)ccn1 [Example 207, 2-(4,4-difluoropiperidin-1-yl)-5-(1H-pyrazol-1-yl)-N-(2-sulfamoylpyridin-4-yl)nicotinamide]	1080
O=C(Nc1cc[nH]c(=O)c1)c1cc(C(F)(F)F)cnc1N1CCC2(CC1)CC2 [Example 208, N-(2-oxo-1,2-dihydropyridin-4-yl)-2-(6-azaspiro[2.5]octan-6-yl)-5-(trifluoromethyl)nicotinamide]	287
Cc1nc(N2CCCCC2)c(C(=O)Nc2cc[nH]c(=O)c2)c(C)c1Cl [Example 211, 5-chloro-4,6-dimethyl-N-(2-oxo-1,2-dihydropyridin-4-yl)-2-(piperidin-1-yl)-nicotinamide]	357
O=C(Nc1cc[nH]c(=O)c1)c1cc(C(F)(F)F)cnc1N1CCCCCC1 [Example 212, 2-(azepan-1-yl)-N-(2-oxo-1,2-dihydropyridin-4-yl)-5-(trifluoromethyl)nicotinamide]	570
Cc1nc(N2CCCC(F)(F)CC2)c(C(=O)N(C)c2ccnc(S(N)(=O)=O)c2)c(C)c1Cl [Example 214, 5-chloro-2-(4,4-difluoroazepan-1-yl)-N,4,6-trimethyl-N-(2-sulfamoylpyridin-4-yl)nicotinamide]	347

Stronger by IC50, values ahead:

IC50 [nM]	SMILES
139	NC(=O)c1cc(NC(=O)c2cc(C(F)(F)F)cnc2N2CCCCCC2)ccn1 [Example 203, 4-(2-(azepan-1-yl)-5-(trifluoromethyl)nicotinamido)picolinamide]
86	O=C(Nc1cc[nH]c(=O)c1)c1cc(C(F)(F)F)cnc1N1CCCC(F)(F)CC1 [Example 210, 2-(4,4-difluoroazepan-1-yl)-N-(2-oxo-1,2-dihydropyridin-4-yl)-5-(trifluoromethyl)-nicotinamide]
80	Cc1nc(N2CCCCCC2)c(C(=O)Nc2cc[nH]c(=O)c2)c(C)c1Cl [Example 213, 2-(azepan-1-yl)-5-chloro-4,6-dimethyl-N-(2-oxo-1,2-dihydropyridin-4-yl)nicotinamide]
80	NS(=O)(=O)c1cc(NC(=O)c2ncc(Cl)nc2N2CCCC(F)(F)CC2)ccn1 [Example 216, 5-chloro-3-(4,4-difluoroazepan-1-yl)-N-(2-sulfamoylpyridin-4-yl)pyrazine-2-carboxamide]
71	NS(=O)(=O)c1cc(NC(=O)c2cc(-c3ccccc3)cnc2N2CCC(F)(F)CC2)ccn1 [Example 205, 2-(4,4-difluoropiperidin-1-yl)-5-phenyl-N-(2-sulfamoylpyridin-4-yl)nicotinamide]
55	NS(=O)(=O)c1cc(NC(=O)c2cc(Br)cnc2N2CCC(F)(F)CC2)ccn1 [Example 204, 5-bromo-2-(4,4-difluoropiperidin-1-yl)-N-(2-sulfamoylpyridin-4-yl)nicotinamide]
12	Cc1nc(N2CCC3(CC2)CC3)c(C(=O)Nc2cc[nH]c(=O)c2)c(C)c1Cl [Example 209, 5-chloro-4,6-dimethyl-N-(2-oxo-1,2-dihydropyridin-4-yl)-2-(6-azaspiro[2.5]octan-6-yl)nicotinamide]
6.6	Cc1nc(C2CCC(C)CC2)c(C(=O)Nc2ccnc(S(N)(=O)=O)c2)c(C)c1Cl (stereo not drawn) [Example 215, 5-chloro-4,6-dimethyl-2-(4-methylcyclohexyl)-N-(2-sulfamoylpyridin-4-yl)nicotinamide]
3.2	Cc1nc(C2CCCCCC2)c(C(=O)Nc2ccnc(S(N)(=O)=O)c2)c(C)c1Cl [Example 217, 5-chloro-2-cycloheptyl-4,6-dimethyl-N-(2-sulfamoylpyridin-4-yl)nicotinamide]
2.4	Cc1nc(C2CCC(F)(F)CC2)c(C(=O)Nc2ccnc(S(N)(=O)=O)c2)c(C)c1Cl [Example 218, 5-chloro-2-(4,4-difluorocyclohexyl)-4,6-dimethyl-N-(2-sulfamoylpyridin-4-yl)nicotinamide]
1.9	Cc1nc(N2CCC3(CC2)CC3)c(C(=O)Nc2ccnc(S(N)(=O)=O)c2)c(C)c1Cl [Example 202, 5-chloro-4,6-dimethyl-2-(6-azaspiro[2.5]octan-6-yl)-N-(2-sulfamoylpyridin-4-yl)nicotinamide]
1.3	Cc1nc(N2CCCCCC2)c(C(=O)Nc2ccnc(S(N)(=O)=O)c2)c(C)c1Cl [Example 201, 2-(azepan-1-yl)-5-chloro-4,6-dimethyl-N-(2-sulfamoylpyridin-4-yl)nicotinamide]
